Results published in ChEMBL document CHEMBL1157148, “Synthesis of eudistomin D analogues and its effects on adenosine receptors” (Bioorg Med Chem, 2008).
pKi: −log10 of the molar value.

Columns and labels:
[1] = target: Adenosine receptor A2a (Homo sapiens, UniProt P29274); experiment: biochemical
Description: Displacement of [3H]CGS21680 from human recombinant adenosine A2A receptor expressed in HEK293T cells

[2] = target: T1, Adenosine receptor A1 (Homo sapiens, UniProt P30542); experiment: Displacement of [3H]DPCPX from human recombinant adenosine A1 receptor expressed in HEK293T cells; format: cell-based, HEK-293T
T1 sequence (P30542 whole entry): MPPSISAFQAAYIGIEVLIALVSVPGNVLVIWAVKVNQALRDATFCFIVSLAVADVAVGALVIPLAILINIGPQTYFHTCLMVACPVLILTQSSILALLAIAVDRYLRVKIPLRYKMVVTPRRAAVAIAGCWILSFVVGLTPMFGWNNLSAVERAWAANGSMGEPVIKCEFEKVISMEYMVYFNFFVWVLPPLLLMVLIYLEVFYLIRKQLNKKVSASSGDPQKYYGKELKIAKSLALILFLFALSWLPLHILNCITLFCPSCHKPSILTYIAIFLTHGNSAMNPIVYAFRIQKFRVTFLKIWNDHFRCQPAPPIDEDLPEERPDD

[3] = target: T2, Adenosine receptor A3 (Homo sapiens, UniProt P0DMS8); experiment: Displacement of [3H]NECA from human recombinant adenosine A3 receptor expressed in HEK293T cells; format: cell-based, HEK-293T
T2 sequence (P0DMS8 whole entry): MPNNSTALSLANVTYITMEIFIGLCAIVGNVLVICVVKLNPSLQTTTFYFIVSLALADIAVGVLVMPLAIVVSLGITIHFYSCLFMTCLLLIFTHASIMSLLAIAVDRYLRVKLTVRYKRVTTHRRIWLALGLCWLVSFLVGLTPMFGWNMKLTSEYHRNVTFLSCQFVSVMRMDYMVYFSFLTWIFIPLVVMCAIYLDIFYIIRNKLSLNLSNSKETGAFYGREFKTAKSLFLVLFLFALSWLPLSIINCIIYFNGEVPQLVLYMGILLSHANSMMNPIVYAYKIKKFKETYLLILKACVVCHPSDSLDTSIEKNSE

Sequence of Adenosine receptor A2a (P29274 whole entry): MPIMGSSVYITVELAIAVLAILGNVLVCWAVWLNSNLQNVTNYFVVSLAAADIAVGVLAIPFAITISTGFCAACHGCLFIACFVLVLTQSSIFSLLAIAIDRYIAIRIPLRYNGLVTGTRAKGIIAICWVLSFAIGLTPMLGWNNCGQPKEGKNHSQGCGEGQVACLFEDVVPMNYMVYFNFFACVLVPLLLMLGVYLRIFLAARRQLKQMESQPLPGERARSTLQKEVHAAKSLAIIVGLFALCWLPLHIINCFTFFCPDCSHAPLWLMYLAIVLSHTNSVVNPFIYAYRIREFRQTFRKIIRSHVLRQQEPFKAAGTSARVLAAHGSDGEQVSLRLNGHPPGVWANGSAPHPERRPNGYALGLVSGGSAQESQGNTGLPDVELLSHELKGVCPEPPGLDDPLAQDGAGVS

Compound | pKi [1] | pKi [2] | pKi [3]
Cc1cc2[nH]c3cnccc3c2c(C)c1O | < 4.00 | < 4.00 | 4.75
Cc1cc2[nH]c3cccnc3c2c(C)c1O | 4.60 | < 4.00 | 5.35
Cc1cc2c(c(C)c1O)c1ncccc1n2C | 4.36 | < 4.00 | 4.88
Cc1cc2c(c(C)c1O)c1ccncc1n2C | 4.09 | < 4.00 | 4.36
Cc1cc2[nH]c3c[n+](C)ccc3c2c(C)c1O | < 4.00 | < 4.00 | 4.53
Cc1cc2c(c(C)c1O)c1cc[n+](C)cc1n2C | < 4.00 | < 4.00 | < 4.00
